Assay results as given in patent US20140155362A1, “BHQ-CONJUGATES, AND RELATED COMPOUNDS, METHODS OF MAKING THE SAME, AND METHODS OF USE THEREOF” (priority 2011, published 2014).
Several values for one entry are separate records, joined by “and”; a condition that tells them apart may be missing. Equal entries are not always repeated. One block for each compound: values may come before it.

Tests used:
[1] = Determination of the uncaging quantum efficiency (Qu), 1-photon photolysis at 365 nm; type: physicochemical; conditions: for Qu (uncaging quantum efficiency): 365±15 nm, KMOPS
Description: Determination of the Uncaging Quantum Efficiency (Qu).
(§1) The quantum efficiency was calculated using the equation Qu=(Iσt90%)^−1, where I is the irradiation intensity in einstein·cm^−2, σ is the decadic extinction coefficient (1,000 times ε) and t90% is the time in seconds required for the conversion of 90% of the starting material to product. To find t90%, a solution of BHQ-O-5HT in KMOPS was prepared and placed in a cuvette along with a small stir bar. While stirring, the solution was irradiated with UV light from a mercury lamp (Spectroline SB-100P, Spectronics Corporation) equipped with two glass filters (CS0-52, CS7-60, Ace Glass) so that the wavelength was restricted to 365±15 nm. Periodically, 20-μL aliquots were removed and analyzed by HPLC. The time points collected were as follows: 0, 5, 10, 20, 30, 60, 90, and 120 s. Percent BHQ-O-5HT remaining was plotted verses time of photolysis. A simple single exponential decay curve provided the best fit for the data and was used to extrapolate t90%. The lamp's UV intensity I was measured using potassium ferrioxalate actinometry. Initially, 6 mM potassium ferrioxalate solution (3 mL) was irradiated with the mercury lamp for 60 s. A portion of this solution (2 mL) was combined with aqueous buffer (3 mL), 0.1% phenanthroline solution (3 mL), and 2M KF solution (1 mL) in a 25-mL volumetric flask. Deionized water was added to generate a 25 mL solution. A blank solution was also prepared using the same method, but the potassium ferrioxalate used in the blank was not irradiated. Both solutions were allowed to sit for one hour and the blank was then used as a baseline against which the absorbance of the irradiated solution was measured at 510 nm. The following equation was used to calculate lamp intensity: […]
where V3 is the volume of dilution (25 mL), V2 is the volume of irradiated potassium ferrioxalate solution taken for analysis (2 mL), ΔD510 is the absorption of the solution at 510 nm, Σ510 is the actinometry extinction coefficient (1.11×10^4 M^−1 cm^−1),)Fe is the quantum yield for production of ferrous ions from potassium ferrioxalate at 365 nm, and t represents the time of irradiation. The ΔD510 value used for calculations is the average of two measurements taken before and after irradiation of BHQ-O-5HT. Compilation of the measurements yielded an uncaging quantum efficiency Qu, of 0.30. The experiment was repeated for BHQ-N-5HT, and compilation of the measurements yielded an uncaging quantum efficiency Qu of 0.10.
as §1, with “c)” for “ε)”, “BHQ-VAA” for “BHQ-O-5HT”, “irradiated.” for “irradiated. Both solutions were allowed to sit for one hour and the blank was then used as a baseline against which the absorbance of the irradiated solution was measured at 510 nm. The following equation was used to calculate lamp intensity:”

[2] = Determination of the dark hydrolysis rate (τdark) in KMOPS; type: physicochemical; conditions: for τdark (time constant for dark hydrolysis): 100 μM in KMOPS, stored in the dark
Description: Determination of the Dark Hydrolysis Rate (τdark).
(§2) Three 100-μM solutions of BHQ-O-5HT in KMOPS were created and stored in the dark. Aliquots (20 μL) were removed periodically from each solution and analyzed by HPLC. The percents remaining for each time point for each solution were averaged and plotted versus time. A simple single exponential decay curve provided the best fit. The time constant for dark hydrolysis (τdark) was determined to be 260 h. The experiment was repeated for BHQ-N-5HT, and the time constant for dark hydrolysis (τdark) was determined to be 300 h.
as §2, with “BHQ-VAA” for “BHQ-O-5HT”, “140” for “260”, “h.” for “h. The experiment was repeated for BHQ-N-5HT, and the time constant for dark hydrolysis (τdark) was determined to be 300 h.”

[3] = Determination of two-photon action cross-sections (δu) at 740 nm; type: physicochemical
Description: Determination of Two-photon Action Cross-Sections (δu).
A portion of BHQ-O-5HT was dissolved in KMOPS buffer and the concentration of the solution was found using UV-Vis absorption in conjunction with Beer's law. Aliquots (25 μL) of this solution were placed in a microcuvette (10×1×1 mm illuminated dimensions) and irradiated with a fs-pulsed and mode-locked Ti:Sapphire laser (Chameleon Ultra II, Coherent) with 740-nm light at an average power of 300 mW. Three samples were irradiated for each of the following time periods: 0, 5, 10, 20, and 40 min. The samples were compiled and analyzed by HPLC. A solution of fluorescein at pH 9.0 was prepared to act as a standard for BHQ-O-5HT because of its well-characterized 2PE cross-section (δaF=30 GM at 740 nm) and quantum yield (QF2=0.9). UV-V is absorption spectroscopy was used to correlate absorption at 488 nm to precise concentration. Aliquots (25 μL) of fluorescein solution were placed in the microcuvette and irradiated by the laser under the same conditions used for the BHQ-O-5HT solution. The fluorescence output of the solution was measured with a radiometer before and after the BHQ-O-5HT samples were irradiated and the two values were averaged. The following equation was used to calculate the two-photon action cross-section for BHQ-O-5HT:
where Np is the number of product molecules formed per second (determined by HPLC), φ is the collection efficiency of the detector (SED033 on an IL-1700, International Light) used to measure the fluorescence of fluorescein passing through the cuvette window and through a 535/545 nm bandpass filter at a right angle to the laser's beam, CF is the concentration of fluorescein, <F(t)> is the time averaged fluorescent photon flux (photons/s) of fluorescein and CS is the initial concentration of the caged compound. The measurements were compiled and the two-photon action cross-section for BHQ-O-5HT was determined to be 0.50 GM. The experiment was repeated for BHQ-N-5HT, and the two-photon action cross-section was determined to be 0.42 GM.
Determination of Two photon Action Cross-Sections (δu).
A portion of BHQ-VAA was dissolved in KMOPS buffer and the concentration of the solution was found using UV-Vis absorption in conjunction with Beer's law. Aliquots (25 μL) of this solution were placed in a microcuvette (10×1×1 mm illuminated dimensions) and irradiated with a fs-pulsed and mode-locked Ti: Sapphire laser (Chameleon Ultra II, Coherent) with 740-nm light at an average power of 300 mW. Three samples were irradiated for each of the following time periods: 0, 5, 10, 20, and 40 min. The samples were compiled and analyzed by HPLC. […] The fluorescence output of the solution was measured with a radiometer before and after the BHQ-VAA samples were irradiated and the two values were averaged. […]

[4] = Determination of absorbance maximum and molar extinction coefficient (ε) in KMOPS buffer; type: physicochemical; conditions: for ε (molar extinction coefficient): at λmax
Description: Determination of the Molar Extinction Coefficient (ε).
(§3) A weighed portion of BHQ-O-5HT was dissolved in methanol. A measured aliquot of this solution was withdrawn and placed in KMOPS buffer (3.0 mL) and mixed thoroughly to generate a 100-μM solution of BHQ-O-5HT. The absorbance A of this solution at τmax=368 nm was measured. This method was repeated twice with different masses of BHQ-O-5HT.
Determination of the Molar Extinction Coefficient (s).
as §3, with “BHQ-VAA” for “BHQ-O-5HT”, “BHQ-VAA.” for “BHQ-O-5HT.”, “λmax=368” for “τmax=368”

[5] = system: cultured dorsal root ganglia (DRG) cells; type: cell-based, mouse
[6] = system: ex vivo zebrafish brain (optic tectum); assay: Electrophysiological recording of PTZ-induced seizure activity in ex vivo zebrafish brain; conditions: PTZ 15 mM-induced seizure
Description: BHQ-O-5HT Mediates the Light Activation of 5HT in an Ex Vivo Zebrafish Brain Preparation (FIG. 1.1).
A microelectrode inserted into the optic tectum was used to record seizure activity induced by application of pentalenetetrazole (PTZ, 15 mM). The ictal and interictal spikes can be observed at regular intervals. After 1040 s, BHQ-O-5HT (1 mM) was added. No change in the amplitude of the ictal spikes was observed. At 1640 s, the preparation was exposed to a brief (˜1 ms) flash of 365-nm light. […] Since 5HT is an inhibitor of seizures,^1,2 this is the expected result.
Procedure for electrophysiological recording in ex vivo zebrafish brain:
An adult zebrafish brain was obtained by dissection in oxygenated artificial cerebrospinal fluid (ACSF).* A sharp glass pipet microelectrode (15 MΩ impedance), loaded with ACSF, was inserted into the optic tectum. A chloride-coated silver wire (0.010 in., A-M Systems, Inc. Sequim, Wash.) reference (15 MΩ impedance) was placed contra-laterally, adjacent to the brain. Neuronal activity was recorded using an MDA-41 AC Differential Amplifier (Bak Electronics, Mount Airy, Md.) and a Tektronix DPO 3012 Digital Phosphor Oscilloscope (Beaverton, Oreg.) using MATLAB. Baseline activity was recorded for 5 min followed by introduction of PTZ (15 mM). […] The response was recorded for 30 min.

[7] = BHQ-OPh, previous unpublished work (Zhu & Dore)
[8] = Table 2.1, KMOPS buffer, 100 μM
[9] = Table 1.1, KMOPS buffer, 100 μM

- quantum efficiency Qu ([1]; 1-photon photolysis at 365 nm, pH 7.2 KMOPS): 0.19
- time constant for hydrolysis in the dark τdark ([2]; simulated physiological conditions, dark): 95 h
- 2-photon photolysis uncaging action cross section δu ([3]; pH 7.2 KMOPS): 0.56 GM
- ε [4, 7]: 3200 M⁻¹ cm⁻¹
- λmax [4, 7]: 369
SMILES: Oc1ccc2ccc(COc3ccccc3)nc2c1Br [BHQ-OPh]

- Sensitivity Qu × ε ([1]; Table 2.1): 486 M⁻¹ cm⁻¹
- Qu (uncaging quantum efficiency) ([1]; Table 2.1): 0.18
- τdark (time constant for dark hydrolysis) ([2]; Table 2.1): 140 h
- δu (two-photon uncaging action cross-section) ([3]; Table 2.1, KMOPS): 0.61 GM
- λmax [4, 8]: 368 nm and 370 nm
- ε (molar extinction coefficient) [4, 8]: 2700 M⁻¹ cm⁻¹
SMILES: COc1cc(CNC(C)=O)ccc1OCc1ccc2ccc(O)c(Br)c2n1 [BHQ-VAA]

- Sensitivity Qu × ε ([1]; Table 1.1): 210 M⁻¹ cm⁻¹
- Qu (uncaging quantum efficiency) ([1]; Table 1.1): 0.10
- τdark (time constant for dark hydrolysis) ([2]; Table 1.1): 300 h
- δu (two-photon uncaging action cross-section) ([3]; Table 1.1, KMOPS): 0.42 GM
- λmax [4, 9]: 370 nm
- ε (molar extinction coefficient) [4, 9]: 2,100 M^−1 cm^−1
SMILES: O=C(NCCc1c[nH]c2ccc(O)cc12)OCc1ccc2ccc(O)c(Br)c2n1 [BHQ-N-5HT]

The next lines start with the compound.

SMILES: CCCCCCCCC(=O)NCc1ccc(OCc2ccc3ccc(O)c(Br)c3n2)c(OC)c1 [BHQ-VNA]
- electrophysiological response after light pulse [5]: immediate potential change is observed that is indistinguishable from the VNA trace
- electrophysiological response, bath applied, without light [5]: does not have any affect

SMILES: CCCCCCCCC(=O)NCc1ccc(O)c(OC)c1 [VNA, N-vanillyl nonanamide, reference compound]
- electrophysiological response (extracellular potential) on topical application ([5]; single DRG neuron, via TRPV1 channels): strong and immediate electrophysiological response

SMILES: NCCc1c[nH]c2ccc(OCc3ccc4ccc(O)c(Br)c4n3)cc12 [BHQ-O-5HT]
- Sensitivity Qu × ε ([1]; Table 1.1): 600 M⁻¹ cm⁻¹
- Qu (uncaging quantum efficiency) ([1]; Table 1.1): 0.30
- change in amplitude of ictal spikes, before light ([6]; compound 1 mM added, no irradiation): No change
- change in amplitude of ictal spikes, after light flash ([6]; compound 1 mM, brief (~1 ms) flash of 365-nm light): immediate reduction in the amplitude of the ictal spikes
- τdark (time constant for dark hydrolysis) ([2]; Table 1.1): 260 h
- δu (two-photon uncaging action cross-section) ([3]; Table 1.1, KMOPS): 0.50 GM
- λmax [4, 9]: 368 nm
- ε (molar extinction coefficient) [4, 9]: 2,000 M^−1 cm^−1
